Assay [1] addresses Cyclin-dependent kinase 2/G1/S-specific cyclin-E1 (Homo sapiens, UniProt P24941). The assay is described as follows: CDK2/CycE Kinase Assay. The procedure:
(§1) For the assay 50 nanoL of a 100 fold concentrated solution of the test compound in DMSO was pipetted into a black low volume 384 well microtiter plate or a black 1536 well microtiter plate (both Greiner Bio-One, Frickenhausen, Germany), 2 microL of a solution of CDK2/CycE in aqueous assay buffer [50 millimol/L Tris/HCl PH 8.0, 10 millimol/L MgCl2, 1.0 millimol/L dithiothreitol, 0.1 millimol/L sodium ortho-vanadate, 0.01% (v/v) Nonidet-P40 (Sigma)] were added and the mixture was incubated for 15 min at 22° C. to allow pre-binding of the test compounds to the enzyme before the start of the kinase reaction. Then the kinase reaction was started by the addition of 3 microL of a solution of adenosine-tri-phosphate (ATP, 3.33 millimol/L=>final conc. in the 5 microL assay volume is 2 millimol/L) and substrate (1.25 micromol/L=>final conc. in the 5 microL assay volume is 0.75 micromol/L) in assay buffer and the resulting mixture was incubated for a reaction time of 25 min at 22° C. The concentration of CDK2/CycE was adjusted depending of the activity of the enzyme lot and was chosen appropriate to have the assay in the linear range, typical concentrations were in the range of 10 ng/ml. The reaction was stopped by the addition of 3 microL of a solution of TR-FRET detection reagents (0.333 micromol/L streptavidine-XL665 [Cisbio Bioassays, Codolet, France] and 1.67 nanomol/L anti-RB (pSer807/pSer811)-antibody from BD Pharmingen [#558389] and 2 nanomol/L LANCE EU-W1024 labeled anti-mouse IgG antibody [Perkin-Elmer, product no. AD0077, as an alternative a Terbium-cryptate-labeled anti-mouse IgG antibody from Cisbio Bioassays can be used]) in an aqueous EDTA-solution (167 millimol/L EDTA, 0.2% (w/v) bovine serum albumin in 100 millimol/L HEPES pH 7.5).The resulting mixture was incubated 1 h at 22° C. to allow the formation of complex between the phosphorylated biotinylated peptide and the detection reagents. Subsequently the amount of phosphorylated substrate was evaluated by measurement of the resonance energy transfer from the Eu-chelate to the streptavidine-XL. Therefore, the fluorescence emissions at 620 nm and 665 nm after excitation at 350 nm was measured in a TR-FRET reader, e.g. a Pherastar (BMG Labtechnologies, Offenburg, Germany) or a Viewlux (Perkin-Elmer).

Assay [2] has as its target Cyclin-K/Cyclin-dependent kinase 12 (Human, UniProt Q9NYV4). The assay is described as follows: CDK12/CycK High ATP Kinase Assay. An excerpt: For the assay 50 nanoL of a 100 fold concentrated solution of the test compound in DMSO was pipetted into either a black low volume 384 well microtiter plate or a black 1536 well microtiter plate (both Greiner Bio-One, Frickenhausen, Germany), 2 microL of a solution of CDK12/CycK in aqueous assay buffer [25 millimol/L HEPES pH 7.5, 20 millimol/L MgCl2, 5 millimol/L β-glycerophosphate, 2 millimol/L EGTA, 1.0 millimol/L dithiothreitol, 0.01% (v/v) Nonidet-P40 (Sigma), 0.01% (w/v) bovine serum albumin] were added and the mixture was incubated for 15 min at 22° C. to allow pre-binding of the test compounds to the enzyme before the start of the kinase reaction. Then the kinase reaction was started by the addition of 3 microL of a solution ATP (3.33 millimol/L=>final conc. in the 5 microL assay volume is 2 millimol/L) and substrate (1.67 micromol/L=>final conc. in the 5 microL assay volume is 1 micromol/L) in assay buffer and the resulting mixture was incubated for a reaction time of 60 min at 22° C. The concentration of CDK12/CycK was adjusted depending of the activity of the enzyme lot and was chosen appropriate to have the assay in the linear range, typical concentrations were about 0.75 nanomol/L. The reaction was stopped by the addition of 3 microL of a solution of TR-FRET detection reagents (125 nanomol/L streptavidine-XL665 [Cisbio Bioassays, Codolet, France] and 0.67 nanomol/L anti-Phospho-c-Myc (Ser 62) (E1J4K)-antibody from Cell Signalling [#13748] and 2 nanomol/L LANCE EU-W1024 labeled anti-rabbit IgG antibody [Perkin-Elmer, product no. 0083]) in an aqueous EDTA-solution (133 millimol/L EDTA, 0.27% (w/v) bovine serum albumin in 66.7 millimol/L HEPES pH 7.5).The resulting mixture was incubated 1 h at 22° C. to allow the formation of complex between the phosphorylated biotinylated peptide and the detection reagents. Subsequently the amount of phosphorylated substrate was evaluated by measurement of the resonance energy transfer from the Eu-chelate to the streptavidine-XL. Therefore, the fluorescence emissions at 620 nm and 665 nm after excitation at 350 nm was measured in a TR-FRET reader, e.g. a Pherastar FS (BMG Labtechnologies, Offenburg, Germany) or a Viewlux (Perkin-Elmer).

The target in assay [3] is Cyclin-T1/Cyclin-dependent kinase 9 (Homo sapiens, UniProt P50750). The assay can be described thus: CDK9/CycT1 High ATP Kinase Assay. Here is the method: as §1, with “into either” for “into”, “CDK9/CycT1” for “CDK2/CycE”, “3.3” for “3.33”, “0.5 microg/ml. […]” for “10 ng/ml. The reaction was stopped by the addition of 3 microL of a solution of TR-FRET detection reagents (0.333 micromol/L streptavidine-XL665 [Cisbio Bioassays, Codolet, France] and 1.67 nanomol/L anti-RB (pSer807/pSer811)-antibody from BD Pharmingen [#558389] and 2 nanomol/L LANCE EU-W1024 labeled anti-mouse IgG antibody [Perkin-Elmer, product no. AD0077, as an alternative a Terbium-cryptate-labeled anti-mouse IgG antibody from Cisbio Bioassays can be used]) in an aqueous EDTA-solution (167 millimol/L EDTA, 0.2% (w/v) bovine serum albumin in 100 millimol/L HEPES pH 7.5).The resulting mixture was incubated 1 h at 22° C. to allow the formation of complex between the phosphorylated biotinylated peptide and the detection reagents.”

A value given as a limit tells only on which side of the number the result lay.

Chain of Cyclin-T1/Cyclin-dependent kinase 9 (O60563 whole entry): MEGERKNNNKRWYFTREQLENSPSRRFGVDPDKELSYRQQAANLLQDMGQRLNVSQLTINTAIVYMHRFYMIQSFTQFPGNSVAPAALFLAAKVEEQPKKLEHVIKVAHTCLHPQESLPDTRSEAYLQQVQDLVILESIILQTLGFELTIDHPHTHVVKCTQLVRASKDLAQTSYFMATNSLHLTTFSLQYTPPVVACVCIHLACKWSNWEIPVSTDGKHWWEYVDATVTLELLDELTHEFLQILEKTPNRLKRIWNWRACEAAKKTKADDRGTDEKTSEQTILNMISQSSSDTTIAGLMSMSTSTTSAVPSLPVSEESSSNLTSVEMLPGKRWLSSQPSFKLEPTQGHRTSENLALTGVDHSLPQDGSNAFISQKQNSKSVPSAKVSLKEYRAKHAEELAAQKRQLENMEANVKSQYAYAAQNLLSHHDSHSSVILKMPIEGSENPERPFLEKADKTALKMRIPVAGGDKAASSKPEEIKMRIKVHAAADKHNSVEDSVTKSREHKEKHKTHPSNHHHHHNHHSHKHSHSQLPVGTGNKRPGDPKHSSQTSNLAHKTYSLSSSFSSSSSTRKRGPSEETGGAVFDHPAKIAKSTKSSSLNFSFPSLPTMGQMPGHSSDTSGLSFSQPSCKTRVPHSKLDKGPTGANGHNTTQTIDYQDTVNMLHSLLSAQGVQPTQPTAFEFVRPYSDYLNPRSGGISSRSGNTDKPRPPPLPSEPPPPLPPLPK
Chain of Cyclin-T1/Cyclin-dependent kinase 9 (P50750 whole entry): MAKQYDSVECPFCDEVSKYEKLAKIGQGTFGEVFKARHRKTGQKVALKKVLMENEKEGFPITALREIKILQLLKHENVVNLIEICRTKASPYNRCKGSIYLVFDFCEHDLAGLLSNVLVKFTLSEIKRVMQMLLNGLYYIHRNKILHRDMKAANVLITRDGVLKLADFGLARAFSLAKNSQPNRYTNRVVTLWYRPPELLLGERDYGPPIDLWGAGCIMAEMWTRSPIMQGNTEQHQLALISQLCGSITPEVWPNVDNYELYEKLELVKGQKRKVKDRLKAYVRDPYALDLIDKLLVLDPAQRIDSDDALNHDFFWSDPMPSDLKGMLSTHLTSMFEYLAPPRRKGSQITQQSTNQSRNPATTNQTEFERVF
Chain of Cyclin-K/Cyclin-dependent kinase 12 (O75909 whole entry): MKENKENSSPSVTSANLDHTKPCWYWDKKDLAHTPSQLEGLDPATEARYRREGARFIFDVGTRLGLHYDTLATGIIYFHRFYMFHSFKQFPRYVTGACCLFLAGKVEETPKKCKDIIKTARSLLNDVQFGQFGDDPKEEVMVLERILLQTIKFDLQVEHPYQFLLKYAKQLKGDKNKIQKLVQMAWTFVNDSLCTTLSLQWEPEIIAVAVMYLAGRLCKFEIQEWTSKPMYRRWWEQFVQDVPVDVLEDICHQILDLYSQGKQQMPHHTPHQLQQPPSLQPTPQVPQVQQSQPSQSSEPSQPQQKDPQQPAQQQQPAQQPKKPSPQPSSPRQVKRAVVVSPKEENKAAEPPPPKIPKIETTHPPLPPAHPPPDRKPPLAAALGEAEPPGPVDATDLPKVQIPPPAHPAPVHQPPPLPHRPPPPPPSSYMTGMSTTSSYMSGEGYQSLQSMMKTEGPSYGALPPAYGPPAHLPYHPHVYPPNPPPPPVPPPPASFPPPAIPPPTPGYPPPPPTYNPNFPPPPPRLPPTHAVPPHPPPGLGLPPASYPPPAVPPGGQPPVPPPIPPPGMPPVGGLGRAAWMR
Chain of Cyclin-K/Cyclin-dependent kinase 12 (Q9NYV4 whole entry): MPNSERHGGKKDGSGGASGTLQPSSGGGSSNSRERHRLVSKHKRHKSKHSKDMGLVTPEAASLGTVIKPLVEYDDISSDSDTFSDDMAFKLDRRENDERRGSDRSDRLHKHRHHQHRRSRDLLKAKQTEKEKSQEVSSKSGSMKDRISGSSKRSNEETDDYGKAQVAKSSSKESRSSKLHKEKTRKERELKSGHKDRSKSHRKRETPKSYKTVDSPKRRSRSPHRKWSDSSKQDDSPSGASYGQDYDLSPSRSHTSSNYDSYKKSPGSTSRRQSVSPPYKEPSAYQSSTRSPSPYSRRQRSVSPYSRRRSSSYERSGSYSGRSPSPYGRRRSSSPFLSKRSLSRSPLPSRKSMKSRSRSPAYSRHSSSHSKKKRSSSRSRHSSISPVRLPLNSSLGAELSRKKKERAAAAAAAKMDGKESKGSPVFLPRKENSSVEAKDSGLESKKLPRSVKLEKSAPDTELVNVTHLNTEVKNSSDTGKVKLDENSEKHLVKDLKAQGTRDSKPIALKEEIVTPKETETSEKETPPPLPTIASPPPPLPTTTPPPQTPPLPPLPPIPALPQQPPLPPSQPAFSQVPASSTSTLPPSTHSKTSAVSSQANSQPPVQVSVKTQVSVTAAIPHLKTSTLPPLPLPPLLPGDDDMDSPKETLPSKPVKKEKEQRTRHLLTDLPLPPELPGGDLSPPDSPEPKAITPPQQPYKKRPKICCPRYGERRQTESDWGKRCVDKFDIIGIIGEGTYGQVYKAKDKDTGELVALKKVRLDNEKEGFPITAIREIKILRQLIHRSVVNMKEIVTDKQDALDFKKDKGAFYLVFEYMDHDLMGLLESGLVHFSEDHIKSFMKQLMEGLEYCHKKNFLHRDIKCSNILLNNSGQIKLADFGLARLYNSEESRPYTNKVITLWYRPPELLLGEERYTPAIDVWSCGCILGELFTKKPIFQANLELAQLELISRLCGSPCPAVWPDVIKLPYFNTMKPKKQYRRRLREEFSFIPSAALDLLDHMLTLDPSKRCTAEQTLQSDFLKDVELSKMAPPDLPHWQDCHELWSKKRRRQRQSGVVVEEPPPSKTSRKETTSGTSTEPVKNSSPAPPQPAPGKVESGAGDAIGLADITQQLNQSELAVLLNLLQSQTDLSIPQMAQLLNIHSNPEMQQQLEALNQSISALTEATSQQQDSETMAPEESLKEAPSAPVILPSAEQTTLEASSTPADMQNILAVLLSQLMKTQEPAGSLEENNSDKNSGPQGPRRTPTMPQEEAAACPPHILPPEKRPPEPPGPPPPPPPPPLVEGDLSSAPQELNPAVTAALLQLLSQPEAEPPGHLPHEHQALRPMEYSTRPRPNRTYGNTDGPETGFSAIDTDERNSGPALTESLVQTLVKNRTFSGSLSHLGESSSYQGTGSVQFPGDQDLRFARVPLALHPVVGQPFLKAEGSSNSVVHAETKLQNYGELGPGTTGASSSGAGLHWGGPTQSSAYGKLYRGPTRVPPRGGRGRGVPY

For orientation: IC50 means the concentration that gives 50% inhibition. For `FC(F)(F)c1ccc(-c2nnc(CNc3nc(N4CCOCC4)nc4c(C(F)(F)F)cnn34)[nH]2)cn1` [US20250066370, Example 16], the 50% inhibitory concentration (IC50) was 4.05 µM in assay [1] and 0.0791 µM in assay [2].
Consider `COc1ccc(-c2nnc(CNc3nc(N4CCOCC4)nn4c(C(F)(F)F)cnc34)[nH]2)cn1` [US20250066370, Example 18], for which the values for the IC50 in assay [1], in assay [2] and in assay [3] were above 5.71 µM, 0.0416 µM and 0.34 µM, respectively.
The corresponding values for `COc1ccc(-c2cnc(CNc3nc(N4CCOCC4)nn4c(C(F)(F)F)cnc34)[nH]2)cc1` [US20250066370, Example 13] are 16.3 µM, 0.0123 µM and 2.78 µM.
In the case of `FC(F)(F)Oc1ccc(-c2nnc(CNc3nc(N4CCOCC4)nc4c(C(F)(F)F)cnn34)[nH]2)cn1` [US20250066370, Example 17], the IC50 in assay [1] turned out to be 6.72 µM; in assay [2], 0.00596 µM.
With `FC(F)(F)c1ccc(-c2cnc(CNc3nc(N4CCOCC4)nc4c(C(F)(F)F)cnn34)[nH]2)cn1` [US20250066370, Example 24], the IC50 in assay [1] came out at 7.82 µM; in assay [2], 0.0151 µM; in assay [3] it was 3.56 µM.

Values taken from BindingDB's records for patent US20250066370 (Deutsches Krebsforschungszentrum, 2025).
